Measured values taken from patent publication US6908919B2, “Substituted polycyclic aryl and heteroaryl pyrazinones useful for selective inhibition of the coagulation cascade” (Pharmacia Corporation, priority 1999, dated 2005).
pIC50: −log10 of the molar value.

How the values were obtained:
[1] = biological target: T1, recombinant soluble tissue factor and recombinant human factor VIIa (TF-VIIa) (Homo sapiens, UniProt P08709); assay: TF-VIIa Assay; format: biochemical; details: for inhibition at 30 µM: 1 h, at 30 µM inhibitor; for pIC50: read-out: IC50 TF-VIIa; for % Inhibition TF-VIIa (100 µM): inhibitor at 100 µM
T1 construct: conversion of coagulation factor VII to VIIa by Xa; purchased American Diagnostica, Greenwich Conn; host or cells: VIIa purchased; soluble TF made in house in E. coli
T1 sequence (P08709 61-212 limits assumed): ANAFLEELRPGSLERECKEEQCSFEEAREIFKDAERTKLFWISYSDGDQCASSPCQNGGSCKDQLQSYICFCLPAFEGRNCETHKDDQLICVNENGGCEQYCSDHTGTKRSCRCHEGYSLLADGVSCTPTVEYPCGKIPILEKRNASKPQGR
T1 sequence (P08709 213-466 limits assumed): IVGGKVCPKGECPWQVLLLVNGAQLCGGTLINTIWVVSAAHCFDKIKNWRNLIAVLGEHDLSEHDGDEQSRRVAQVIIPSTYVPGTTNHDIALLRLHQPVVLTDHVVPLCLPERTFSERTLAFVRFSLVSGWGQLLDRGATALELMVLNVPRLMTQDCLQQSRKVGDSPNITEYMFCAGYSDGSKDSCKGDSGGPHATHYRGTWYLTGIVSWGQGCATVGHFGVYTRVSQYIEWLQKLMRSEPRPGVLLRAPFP
T1 sequence (P13726 33-251 partner limits assumed): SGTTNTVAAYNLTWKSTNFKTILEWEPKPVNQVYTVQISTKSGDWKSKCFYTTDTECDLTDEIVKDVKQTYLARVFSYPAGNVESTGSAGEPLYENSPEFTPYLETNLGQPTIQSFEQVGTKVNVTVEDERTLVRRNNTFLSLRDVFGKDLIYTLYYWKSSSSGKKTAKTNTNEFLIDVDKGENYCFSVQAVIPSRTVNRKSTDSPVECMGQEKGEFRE

Human factor Xa = Human factor Xa (Homo sapiens, UniProt P00742); assay: Xa Assay; format: biochemical; set-up: purchased Enzyme Research Laboratories, South Bend Ind; details: for inhibition at 100 µM: at 100 μM inhibitor; for % Inhibition Factor Xa (100 µM): inhibitor at 100 µM
Sequence of Human factor Xa (P00742 41-179 limits assumed): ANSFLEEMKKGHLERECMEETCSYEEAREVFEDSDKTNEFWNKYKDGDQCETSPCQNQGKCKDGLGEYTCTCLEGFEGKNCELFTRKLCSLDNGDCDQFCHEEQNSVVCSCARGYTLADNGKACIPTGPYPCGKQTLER
Sequence of Human factor Xa (P00742 235-488 limits assumed): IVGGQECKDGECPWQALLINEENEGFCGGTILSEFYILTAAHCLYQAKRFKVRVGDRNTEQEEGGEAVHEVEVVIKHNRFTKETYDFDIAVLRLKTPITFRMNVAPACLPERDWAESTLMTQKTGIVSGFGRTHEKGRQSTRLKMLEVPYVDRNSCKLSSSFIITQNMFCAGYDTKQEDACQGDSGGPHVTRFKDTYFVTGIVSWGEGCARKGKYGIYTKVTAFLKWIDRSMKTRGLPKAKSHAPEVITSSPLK

Human thrombin [2] = biological target: T2, Human thrombin (Homo sapiens, UniProt P00734)
Human thrombin [3] = biological target: T2, Human thrombin; assay: biochemical; details: for inhibition at 100 µM: read-out: % Inhibition Thrombin II at 100 μM

| Compound | % Inhibition Factor Xa (30 µM) (Human factor Xa; at 30 µM inhibitor) | pIC50 [1] | pIC50 (Human thrombin [3]) | inhibition at 100 µM (Human factor Xa) | further results |
| --- | --- | --- | --- | --- | --- |
| CC(C)Nc1nc(Cl)c(-c2cccc(N)c2)n(CC(=O)Nc2ccc(S(=O)(=O)NC(=N)N)cc2)c1=O [Example 155] | 11% |  |  |  | inhibition at 30 µM [1]: 1%; % Inhibition Thrombin II (30 µM) (Human thrombin [2]): 2% |
| COC(=O)c1cc(N)cc(-c2cnc(NC3CCC3)c(=O)n2CC(=O)NCc2ccc(C(=N)N)cc2)c1 [Example 117] | 18% | 7.48 |  |  | % Inhibition Thrombin II (30 µM) (Human thrombin [2]): 21% |
| CC(C)Nc1nc(Cl)c(-c2cc(N)ccc2SCC(=O)O)n(CC(=O)NCc2ccc(C(=N)N)cc2)c1=O [Example 110] | 15% | 7.30 |  |  | % Inhibition Thrombin II (30 µM) (Human thrombin [2]): 20% |
| CC(C)Nc1nc(Cl)c(-c2cc(N)cc(C(=O)NCc3cccnc3)c2)n(CC(=O)NCc2ccc(C(=N)N)cc2)c1=O [Example 128-18] |  | 7.73 |  |  | inhibition at 100 µM (Human thrombin [3]): 21% |
| Nc1cccc(-c2c(Cl)nc(NC3CCC3)c(=O)n2CC(=O)NCc2ccc(-c3n[nH]c(=O)[nH]3)cc2)c1 [Example 153] | 8% |  | < 4.52 |  | inhibition at 30 µM [1]: 12% |
| CC(C)Nc1nc(Cl)c(-c2cc(N)cc(C(=O)NC(C)(C)c3ccccc3)c2)n(CC(=O)NCc2ccc(C(=N)N)cc2)c1=O [Example 128-4] |  | 7.97 | 4.62 | 42% |  |
| COC(=O)c1cc(N)cc(-c2c(Cl)nc(NC3CCC3)c(=O)n2CC(=O)NCc2ccc(C(=N)N)cc2)c1 [Example 127] | 27% | 7.51 |  |  | % Inhibition Thrombin II (30 µM) (Human thrombin [2]): 23% |
| CC(C)Nc1nc(Cl)c(-c2cc(N)cc(C(=O)NCc3cccc(C(F)(F)F)c3)c2)n(CC(=O)NCc2ccc(C(=N)N)cc2)c1=O [Example 128-13] |  | 7.31 |  | 26% | inhibition at 100 µM (Human thrombin [3]): 36% |
| CC(C)Nc1nc(Cl)c(-c2cc(N)cc(C(=O)NCc3cccc(F)c3)c2)n(CC(=O)NCc2ccc(C(=N)N)cc2)c1=O [Example 128-12] |  | 7.96 |  | 33% | inhibition at 100 µM (Human thrombin [3]): 47% |
| C/N=C(/NC)c1ccc(CNC(=O)Cn2c(-c3cccc(N)c3)c(Cl)nc(NC3CCC3)c2=O)cc1 [Example 162] |  |  |  |  | inhibition at 30 µM [1]: 35%; % Inhibition Thrombin II (30 µM) (Human thrombin [2]): 2% |
| COCC/N=C(\NCCOC)c1ccc(CNC(=O)Cn2c(-c3cccc(N)c3)c(Cl)nc(NC3CCC3)c2=O)cc1 [Example 164] | 2% |  |  |  | inhibition at 30 µM [1]: 24%; % Inhibition Thrombin II (30 µM) (Human thrombin [2]): 5% |
| Nc1cccc(-c2c(Cl)nc(NC3CCC3)c(=O)n2CC(=O)NCc2ccc3[nH]cnc3c2)c1 [Example 146] | 5% |  | < 4.52 |  |  |
| COC(=O)c1cccc(Sc2ccc(N)cc2-c2c(Cl)nc(NC(C)C)c(=O)n2CC(=O)NCc2ccc(C(=N)N)cc2)c1 [Example 112] |  | 6.57 | 4.89 |  | pIC50 (Human factor Xa): 4.46 |
| CC(C)Nc1ncc(-c2cc(N)cc(N)c2)n(CC(=O)NCc2ccc(C(=N)N)cc2)c1=O [Example 121] |  | 8.02 |  |  | inhibition at 83 µM (Human thrombin [3]; read-out: % Inhibition Thrombin II at 83 μM): 44%; inhibition at 83 µM (Human factor Xa; at 83 μM inhibitor): 23% |
| CC(C)NC(=N)c1ccc(CNC(=O)Cn2c(-c3cccc(N)c3)c(Cl)nc(NC3CCC3)c2=O)cc1 [Example 161] |  | 4.05 |  |  | % Inhibition Thrombin II (30 µM) (Human thrombin [2]): 7% |
| N=C(N)c1ccc(CNC(=O)Cn2c(-c3cc(N)nc(C(=O)O)c3)cnc(NC3CCC3)c2=O)cc1 [Example 120] |  | 7.00 |  | 43% | inhibition at 100 µM (Human thrombin [3]): 47% |
| N/N=C(/N)c1ccc(CNC(=O)Cn2c(-c3cccc(N)c3)c(Cl)nc(NC3CCC3)c2=O)cc1 [Example 148] |  | 5.15 |  | 8% | inhibition at 100 µM (Human thrombin [3]): 4% |
| CC(C)Nc1nc(Cl)c(-c2cc(N)cc(C(=O)NC3CCCC3)c2)n(CC(=O)NCc2ccc(C(=N)N)cc2)c1=O [Example 128-16] |  | 8.15 | 4.99 | 36% |  |
| N=C(NC(=O)OCc1ccccc1)c1ccc(CNC(=O)Cn2c(-c3cccc(N)c3)c(Cl)nc(NC3CCC3)c2=O)cc1 [Example 151] | 17% | 6.64 |  |  | % Inhibition Thrombin II (30 µM) (Human thrombin [2]): 29% |
| Nc1cccc(-c2c(Cl)nc(NC3CCC3)c(=O)n2CC(=O)NCc2ccc3c(N)nsc3c2)c1 [Example 145] | 3% | 4.57 | < 4.52 |  |  |
| CC(C)Nc1nc(Cl)c(-c2cccc(N)c2)n(CC(=O)NCc2ccc(C(N)=S)cc2)c1=O [Example 156] | 7% |  |  |  | inhibition at 30 µM [1]: 27%; % Inhibition Thrombin II (30 µM) (Human thrombin [2]): 5% |
| N=C(N)c1ccc(COCCn2c(-c3cccc(N)c3)c(Cl)nc(NC3CCC3)c2=O)cc1 [Example 140] |  | 4.88 | 4.32 | 24% |  |
| Nc1cccc(-c2c(Cl)nc(NC3CCC3)c(=O)n2CC(=O)NCc2ccc(-c3noc(=O)[nH]3)cc2)c1 [Example 152] |  |  | < 4.52 |  | inhibition at 30 µM [1]: 28%; pIC50 (Human factor Xa): < 4.52 |

| Compound | % Inhibition Factor Xa (30 µM) (Human factor Xa; at 30 µM inhibitor) | pIC50 [1] | pIC50 (Human thrombin [3]) | inhibition at 100 µM (Human factor Xa) | further results |
| --- | --- | --- | --- | --- | --- |
| CSc1ccc(N)cc1-c1c(Cl)nc(NC(C)C)c(=O)n1CC(=O)NCc1ccc(C(=N)N)cc1 [Example 111] |  | 6.92 | < 4.52 |  | pIC50 (Human factor Xa): < 4.52 |
| CC(C)Nc1nc(Cl)c(-c2cc(N)cc(C(=O)NCc3cc(C(F)(F)F)cc(C(F)(F)F)c3)c2)n(CC(=O)NCc2ccc(C(=N)N)cc2)c1=O [Example 128-6] |  | 6.48 |  | 29% | inhibition at 100 µM (Human thrombin [3]): 40% |
| N=C(NCc1ccccc1)c1ccc(CNC(=O)Cn2c(-c3cccc(N)c3)c(Cl)nc(NC3CCC3)c2=O)cc1 [Example 160] | 7% | 4.74 |  |  | % Inhibition Thrombin II (30 µM) (Human thrombin [2]): 9% |
| Nc1cccc(-c2c(Cl)nc(NC3CCC3)c(=O)n2CC(=O)NCc2ccc3ccnc(N)c3c2)c1 [Example 147] |  |  | < 4.52 |  | inhibition at 30 µM [1]: 5%; pIC50 (Human factor Xa): < 4.52 |
| N=C(N)c1ccc(Cc2cccc(-n3c(-c4cccc(N)c4)c(Cl)nc(NC4CCC4)c3=O)c2)cc1 [Example 138] |  |  |  | 28% | inhibition at 100 µM (Human thrombin [3]): 39%; inhibition at 30 µM [1]: 8% |
| CC(C)Nc1nc(Cl)c(-c2cc(N)cc(C(=O)NCc3ccccn3)c2)n(CC(=O)NCc2ccc(C(=N)N)cc2)c1=O [Example 128-19] |  | 7.58 |  | 18% | inhibition at 100 µM (Human thrombin [3]): 37% |
| COCCNC(=N)c1ccc(CNC(=O)Cn2c(-c3cccc(N)c3)c(Cl)nc(NC3CCC3)c2=O)cc1 [Example 163] |  | 4.40 |  |  | % Inhibition Thrombin II (30 µM) (Human thrombin [2]): 4% |
| N=C(N)c1ccc(CCC(=O)Cn2c(-c3cccc(N)c3)c(Cl)nc(NC3CCC3)c2=O)cc1 [Example 142] |  | 6.70 | 5.34 |  |  |
| CC(C)Nc1nc(Br)c(-c2cccc(N)c2)n(CC(=O)NCc2ccc(C(=N)N)cc2)c1=O [Example 124] | 17% | 7.80 | 5.33 |  |  |
| CC(C)Nc1nc(Cl)c(-c2cc(N)cc(C(=O)NCc3ccccc3C(F)(F)F)c2)n(CC(=O)NCc2ccc(C(=N)N)cc2)c1=O [Example 128-11] |  | 7.94 |  | 35% | inhibition at 100 µM (Human thrombin [3]): 46% |
| N=C(N)c1ccc(CNCCn2c(-c3cccc(N)c3)c(Cl)nc(NC3CCC3)c2=O)cc1 [Example 139] |  | 5.33 | 4.45 | 41% |  |
| CC(C)Nc1nc(Cl)c(-c2cc(N)cc(C(=O)NC3CCC3)c2)n(CC(=O)NCc2ccc(C(=N)N)cc2)c1=O [Example 128-15] |  | 8.18 | 4.88 | 32% |  |
| N=C(N)c1ccc(CNC(=O)Cn2c(-c3ccc(N)cc3)c(Cl)nc(NC3CCC3)c2=O)cc1 [Example 115] | 10% | 6.26 | 5.12 |  |  |
| CC(C)Nc1nc(Cl)c(-c2cccc(N)c2)n(CC(=O)NCC2CCC(C(=N)N)C=N2)c1=O (stereo not shown) [Example 150] | 4% | 6.44 | 4.60 |  |  |
| CC(C)Nc1nc(Cl)c(-c2cccc(N)c2)n(CC(=O)NNc2ccc(C(=N)N)cc2)c1=O [Example 157] |  | 6.15 | 4.46 |  | pIC50 (Human factor Xa): 4.19 |
| N=C(N)c1ccc(CNC(=O)Cn2c(-c3cccc(C(=N)N)c3)c(Cl)nc(NC3CCC3)c2=O)cc1 [Example 114] |  | 6.42 | 5.37 |  | pIC50 (Human factor Xa): 5.19 |
| O=C(Cn1c(-c2cccc(Cl)c2)c(Cl)nc(NCCc2ccccc2)c1=O)NCCc1ccncc1 [Example E-0076] |  |  |  |  | % Inhibition TF-VIIa (100 µM) [1]: 0%; % Inhibition Factor Xa (100 µM) (Human factor Xa): 1% |
| O=C(Cn1c(-c2cccc(Cl)c2)c(Cl)nc(NCCc2cccc(Cl)c2)c1=O)NCCc1cccnc1 [Example E-0092] |  |  |  |  | % Inhibition TF-VIIa (100 µM) [1]: 1%; % Inhibition Factor Xa (100 µM) (Human factor Xa): 3% |
| N=C(N)c1ccc(CNC(=O)Cn2c(-c3ccccc3)c(Cl)nc(NCC3CC3)c2=O)cc1 [Example 1517-43] |  |  |  |  | % Inhibition TF-VIIa (30 µM) ([1]; at 30 µM): 25%; % Inhibition Factor Xa (30 µM) (Human factor Xa; at 30 µM): 0% |
| O=C(Cn1c(CCc2ccccc2)c(Cl)nc(NCc2ccncc2)c1=O)NCCc1ccncc1 [Example E-0072] |  |  |  |  | % Inhibition TF-VIIa (100 µM) [1]: 0%; % Inhibition Factor Xa (100 µM) (Human factor Xa): 0% |
| CC(C)Nc1nc(Cl)c(-c2cc(N)cc(C(=O)NCc3ccccc3)c2)n(CC(=O)NCc2ccc(C(=N)N)cc2)c1=O [Example 128-9] |  | 8.15 |  | 36% |  |
| N=C(N)c1ccc(NC(=O)Cn2c(-c3cccc(N)c3)c(Cl)nc(NC3CCC3)c2=O)cc1 [Example 141] |  |  |  | 13% | inhibition at 100 µM (Human thrombin [3]): 11%; inhibition at 30 µM [1]: 2% |
| CC(C)Nc1nc(Cl)c(-c2cc(N)cc(C(=O)NC3CCCCCC3)c2)n(CC(=O)NCc2ccc(C(=N)N)cc2)c1=O [Example 128-17] |  | 7.96 | 4.69 | 41% |  |
